Test results: EP0044495B1, “16-Beta ethyl steroids, compositions containing them and process for their preparation” (SCHERING AKTIENGESELLSCHAFT, priority 1980, dated 1982)

System: Samenblasen- und Prostatagewichts von Ratten
Experiment: Antiandrogenic effect: inhibition of the testosterone propionate-induced increase in seminal vesicle and prostate weight of rats after subcutaneous administration
Format: in vivo
Conditions: for Testosteronpropionat-Hemmung Prostata / Testosteronpropionat-Hemmung Samenblase: rats, subcutaneous administration, Dosis 0,3 mg/Tag per animal; for Testosteronpropionat-Hemmung Prostata: prostate weight; for Testosteronpropionat-Hemmung Samenblase: seminal vesicle weight
Excerpt: Die neuen Verbindungen der allgemeinen Formel 1 besitzen starke antiandrogene Wirkung.

SMILES | Testosteronpropionat-Hemmung Prostata [%] | Testosteronpropionat-Hemmung Samenblase [%] | antiandrogene Wirkung (result in words, comparison of A with B at 0,3 mg pro Tier und Tag, or general statement)
CC[C@H]1C[C@H]2[C@@H]3CCC4=CC(=O)CCC4=C3CC[C@]2(C)[C@H]1O [A, 16ß-Ethyl-17ß-hydroxy-4,9(10)-estradien-3-on] | 18 | 34 | signifikant wirksamer
CC[C@H]1C[C@H]2[C@@H]3CCC4=CC(=O)CC[C@@H]4[C@H]3CC[C@]2(C)[C@H]1O [B, 16ß-Ethyl-17ß-hydroxy-4-estren-3-on, reference compound] | 0 | 13 | 
